Here are results for nine compounds from BindingDB's records for doi:10.1021/jm0301033 (Florida A and M University, 2004).

The target of one assay is D(3) dopamine receptor (Homo sapiens, UniProt P35462). The assay is described as follows: Displacement of [3H]7-OH-DPAT from human Dopamine receptor D3. (In general: Displacement assays read how much labelled ligand stays bound in the presence of the test substance.)
The target of another assay is T1, D(4) dopamine receptor (Homo sapiens, UniProt P21917).
T1 sequence (P21917 whole entry): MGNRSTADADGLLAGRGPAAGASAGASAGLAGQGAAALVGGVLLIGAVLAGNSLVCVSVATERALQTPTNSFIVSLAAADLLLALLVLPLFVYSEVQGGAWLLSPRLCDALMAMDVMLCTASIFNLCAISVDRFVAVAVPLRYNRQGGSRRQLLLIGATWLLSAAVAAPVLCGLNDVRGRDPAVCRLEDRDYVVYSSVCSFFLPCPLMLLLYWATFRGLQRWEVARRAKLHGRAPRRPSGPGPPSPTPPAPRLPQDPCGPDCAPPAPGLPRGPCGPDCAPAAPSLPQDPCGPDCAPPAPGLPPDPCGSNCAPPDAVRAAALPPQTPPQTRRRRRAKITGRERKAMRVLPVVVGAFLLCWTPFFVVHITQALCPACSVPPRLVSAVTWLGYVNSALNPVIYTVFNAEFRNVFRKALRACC
Nature of the assay: Displacement of [3H]spiperone from human Dopamine receptor D4.

Each structure is given as a SMILES string. Bounds are passed on as bounds.

D(3) dopamine receptor, sequence (P35462 as listed by the source): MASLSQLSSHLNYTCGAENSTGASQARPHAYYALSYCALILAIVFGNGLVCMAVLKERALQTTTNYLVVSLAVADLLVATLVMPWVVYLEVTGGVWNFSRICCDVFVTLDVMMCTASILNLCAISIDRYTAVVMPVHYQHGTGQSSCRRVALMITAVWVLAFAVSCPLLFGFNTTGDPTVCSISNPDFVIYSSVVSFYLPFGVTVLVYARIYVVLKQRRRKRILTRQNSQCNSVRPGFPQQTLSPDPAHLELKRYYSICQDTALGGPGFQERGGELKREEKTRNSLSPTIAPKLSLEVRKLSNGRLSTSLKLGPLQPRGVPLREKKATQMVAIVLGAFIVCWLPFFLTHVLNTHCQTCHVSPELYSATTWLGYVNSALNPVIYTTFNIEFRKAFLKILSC

Regarding `O=C(CCCN1CCC(CO)(c2ccc(Cl)cc2)CC1)c1ccc(F)cc1`, the figures for the pKi on D(3) dopamine receptor and on D(4) dopamine receptor were 6.96 and 7.11, respectively.
With `O=C(CCCN1CCC(c2ccc(Cl)cc2)CC1)c1ccc(F)cc1`, the pKi (in general, −log10 of the Ki, conventionally taken in molar units) is 7.34 on D(3) dopamine receptor and 7.59 on D(4) dopamine receptor.
For `O=C(CCCN1CCC(CCO)(c2ccc(Cl)cc2)C1)c1ccc(F)cc1` (configuration not stated), in that order: 7.49 and 6.71.
For the compound `O=C(CCC[n+]1ccc(-c2ccc(Cl)cc2)cc1)c1ccc(F)cc1`, the pKi on D(3) dopamine receptor and at D(4) dopamine receptor was below 6 throughout.
As for `O=C(CCCN1CCC(C(O)c2ccc(Cl)cc2)CC1)c1ccc(F)cc1` (configuration not stated), the pKi at D(3) dopamine receptor was 7.11; at D(4) dopamine receptor, 6.91.
For `CN(CCCC(=O)c1ccc(F)cc1)CCCC(O)c1ccc(Cl)cc1` (configuration not stated), the pKi on D(3) dopamine receptor was found to be 6.79; at D(4) dopamine receptor it was 6.72.
In turn, `O=C(CCCN1CCC(c2ccc(Cl)cc2)C1)c1ccc(F)cc1` (configuration not stated) came in with a pKi at D(4) dopamine receptor of 7.82.
Regarding `O=C(CCCN1CCC(CO)(c2ccc(Cl)cc2)C1)c1ccc(F)cc1` (configuration not stated), the results for the pKi at D(3) dopamine receptor and at D(4) dopamine receptor were 6.78 and 7.62, respectively.
On to `O=C(CCCN1CCC(O)(Cc2ccc(Cl)cc2)CC1)c1ccc(F)cc1`, for which the pKi on D(3) dopamine receptor was 8.05; at D(4) dopamine receptor, 7.23.
